Values of other authors, collected in US11351146B2, “Topical compositions for the treatment of cutaneous leishmaniasis” (AC BIOSCIENCE SA, priority 2017, dated 2022).

Key:
[1] = tested on: L. mexicana, L. infantum and L. major promastigotes
intracellular amastigote = details: versus glucantime

CCOC(=O)c1cccc(NC(=O)CCl)c1 [MF 29, 3-(2-chloroacetamido) ethyl benzoate]
effect on promastigotes strains ([1]; L. mexicana, L. infantum and L. major promastigotes): high effect | fold more active than glucantime ([1]; promastigote, versus glucantime): 400 fold | fold more active than glucantime (intracellular amastigote): 400 fold
